What follows are molecules tested against VR1 (Homo sapiens, UniProt Q8NER1) (assay: Calcium uptake assay, low pH (proton) stimulus). Conditions: 0.3 μM compound; low pH agonist; HEK 293 cells expressing hVR1.
VR1, sequence (Q8NER1 whole entry): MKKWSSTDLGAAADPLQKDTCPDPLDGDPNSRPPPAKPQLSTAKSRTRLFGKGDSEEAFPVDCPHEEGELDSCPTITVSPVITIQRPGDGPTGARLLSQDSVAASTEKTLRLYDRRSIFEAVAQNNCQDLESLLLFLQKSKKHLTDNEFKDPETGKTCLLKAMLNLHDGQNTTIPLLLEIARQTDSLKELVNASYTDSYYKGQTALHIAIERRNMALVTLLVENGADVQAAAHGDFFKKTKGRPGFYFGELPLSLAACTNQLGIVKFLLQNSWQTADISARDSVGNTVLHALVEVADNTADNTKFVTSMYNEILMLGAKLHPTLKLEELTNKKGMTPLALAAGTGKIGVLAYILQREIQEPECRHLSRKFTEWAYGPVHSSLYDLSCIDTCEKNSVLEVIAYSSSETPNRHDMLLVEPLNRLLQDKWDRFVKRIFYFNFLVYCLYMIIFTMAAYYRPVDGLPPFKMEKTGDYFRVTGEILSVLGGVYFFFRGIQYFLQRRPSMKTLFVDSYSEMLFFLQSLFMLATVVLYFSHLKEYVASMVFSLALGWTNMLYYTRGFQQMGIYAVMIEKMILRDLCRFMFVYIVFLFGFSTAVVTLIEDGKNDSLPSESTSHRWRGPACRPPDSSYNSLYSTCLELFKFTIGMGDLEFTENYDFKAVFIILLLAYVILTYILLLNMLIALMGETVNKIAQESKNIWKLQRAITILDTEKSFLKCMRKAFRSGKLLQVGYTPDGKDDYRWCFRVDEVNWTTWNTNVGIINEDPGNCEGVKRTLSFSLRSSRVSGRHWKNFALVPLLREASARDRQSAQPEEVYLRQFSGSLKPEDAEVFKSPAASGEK
Assay type: cell-based
Design: expressed in transfected cells; host or cells: T-REx HEK 293 (Invitrogen), pcDNA5/TO vector
With CC(C)(C)C#Cc1ccc(C(=O)Nc2cnc3ccccc3c2)cc1 [Compound 32] the “Low pH % Inhib. @ 0.3 μM” value was 101%. With O=C(Nc1ccc2c(c1)OCC(CO)O2)c1ccc(/C=C/C(F)(F)F)cc1 (single isomer, unassigned) [Compound 108] the “Low pH % Inhib. @ 0.3 μM” value was 116%.

Same assay, conditions: HEK293; 0.3 μM compound; low pH agonist; HEK 293 cells expressing hVR1; read-out: Low pH % Inhib. @ 0.3 μM
Molecule CC(C)(C)C#Cc1ccc(C(=O)Nc2ccc3c(c2)OCO3)cc1 [Compound 28] has an inhibition at 0.3 µM of 102%. In the case of Cc1nc2cc(NC(=O)c3ccc(C#CC(C)(C)C)cc3F)ccc2s1 [Compound 173], the inhibition at 0.3 µM was 109%. Cc1nc2cc(NC(=O)c3ccc(C#CC(C)(C)C)cc3Cl)ccc2s1 [Compound 165] was tested, and the inhibition at 0.3 µM was 107%. With CN1CCCc2ccc(NC(=O)c3ccc(C#CC4CC4)cc3)cc21 [Compound 80] the inhibition at 0.3 µM was 92%. CC(C)(C)C#Cc1ccc(C(=O)Nc2cccc3cnccc23)c(F)c1 [Compound 175] showed an inhibition at 0.3 µM of 95%. For Cc1cc(C#CC(C)(C)C)ccc1C(=O)Nc1cnc2[nH]ccc2c1 [Compound 212], the inhibition at 0.3 µM was 97%. Work on O=C(Nc1cnc2ccccc2c1)c1ccc(C#CC2CC2)cc1 [Compound 47] yielded an inhibition at 0.3 µM of 55%. Work on CC(C)(C)C#Cc1ccc(C(=O)Nc2ccc3c(c2)NCC3(C)C)cc1 [Compound 69] yielded an inhibition at 0.3 µM of 103%. Cc1cc(/C=C/C(F)(F)F)ccc1C(=O)Nc1cnc2[nH]ccc2c1 [Compound 230] was tested, and the inhibition at 0.3 µM was 99%. Molecule O=C(Nc1ccc2c(c1)OCCN2)c1ccc(/C=C\C(F)(F)F)cc1F [Compound 135] has an inhibition at 0.3 µM of 29%. Work on Cc1cc(/C=C/C(F)(F)F)ccc1C(=O)Nc1cccc2c(Cl)nccc12 [Compound 200] yielded an inhibition at 0.3 µM of 55%. Cc1cc(C#CC2CC2)ccc1C(=O)Nc1ccc2c(c1)OCCN2 [Compound 153] showed an inhibition at 0.3 µM of 104%. With O=C(Nc1ccc2c(c1)OCCO2)c1ccc(C#CC2CC2)cc1F [Compound 145] the inhibition at 0.3 µM was 41%. In the case of O=C(Nc1ccc2c(c1)OCCN2)c1ccc(C#CC2CC2)cc1Cl [Compound 147], the inhibition at 0.3 µM was 88%. Molecule O=C(Nc1ccc2c(c1)OCCO2)c1ccc(C#CC(F)(F)F)cc1 [Compound 43] has an inhibition at 0.3 µM of 105%. Cc1cc(C#CC(C)(C)C)ccc1C(=O)Nc1ccc2c(c1)C(=O)NC2=O [Compound 213] gave an inhibition at 0.3 µM of 88%. CC(C)(C)C#Cc1ccc(C(=O)Nc2cccc3cnccc23)nc1 [Compound 91] gave an inhibition at 0.3 µM of 21%. In the case of O=C(Nc1ccc2c(c1)OCCN2)c1ccc(C#CC2CC2)cc1F [Compound 143], the inhibition at 0.3 µM was 100%. For CC(C)(C)C#Cc1ccc(C(=O)Nc2cccc3cnccc23)c(Cl)n1 [Compound 66], the inhibition at 0.3 µM was 10%. Cc1cc(C#CC(C)(C)C)ccc1C(=O)Nc1ccc2c(c1)OCC(CO)O2 (stereo not drawn) [Compound 186] was tested, and the inhibition at 0.3 µM was 91%. Molecule C/C(=C/C(C)(C)C)c1ccc(C(=O)Nc2ccc3ncccc3c2)cc1 [Compound 18] has an inhibition at 0.3 µM of 12%. O=C(Nc1ccc2c(c1)OCC(CO)O2)c1ccc(/C=C/C(F)(F)F)cc1 (stereo not drawn) [Compound 97] showed an inhibition at 0.3 µM of 101%. CC(C)/C=C/c1ccc(C(=O)Nc2ccc3c(c2)OCCO3)cc1 [Compound 8] gave an inhibition at 0.3 µM of 26%. CN1CCOc2cc(NC(=O)c3ccc(/C=C/C(F)(F)F)cc3)ccc21 [Compound 73] showed an inhibition at 0.3 µM of 94%. CC(C)(C)C#Cc1ccc(C(=O)Nc2cnc3ccccc3c2)cc1 [Compound 24] showed an inhibition at 0.3 µM of 101%. Molecule Cc1cc(C#CC2CC2)ccc1C(=O)Nc1ccc2c(c1)OCCO2 [Compound 152] has an inhibition at 0.3 µM of 73%. In the case of O=C(Nc1ccc2c(c1)OCCO2)c1ccc(C#CC2CC2)cc1 [Compound 49], the inhibition at 0.3 µM was 96%. Cc1cc(/C=C/C(F)(F)F)ccc1C(=O)Nc1cccc2cnccc12 [Compound 77] was tested, and the inhibition at 0.3 µM was 90%. In the case of Cc1cc2c(NC(=O)c3ccc(/C=C/C(F)(F)F)cc3)cccc2cn1 [Compound 114], the inhibition at 0.3 µM was 90%. O=C(Nc1ccc2c(c1)OCCN2)c1ccc(C#CC2CCCC2)cc1 [Compound 117] gave an inhibition at 0.3 µM of 98%. In the case of CC(C)(O)COc1cc(C(=O)Nc2ccc3c(c2)OCCO3)ccc1C#CC1CC1 [Compound 110], the inhibition at 0.3 µM was 1%. For O=C(Nc1ccc2c(c1)OCC(CO)O2)c1ccc(C#CC2CC2)cc1F (stereo not drawn) [Compound 150], the inhibition at 0.3 µM was 75%. CC(C)(C)C#Cc1ccc(C(=O)Nc2ccc3c(c2)OC(F)(F)O3)cc1 [Compound 50] was tested, and the inhibition at 0.3 µM was 5%. Molecule CC(C)(C)C#Cc1ccc(C(=O)Nc2ccc3c(c2)OCCN3)c(F)c1 [Compound 137] has an inhibition at 0.3 µM of 103%. Molecule COc1cc(C#CC(C)(C)C)ccc1C(=O)Nc1ccc2c(c1)OCCN2 [Compound 128] has an inhibition at 0.3 µM of 12%. Work on CC(C)(C)C#Cc1ccc(C(=O)Nc2ccc3c(c2)OCC(CO)O3)c(F)c1 (stereo not drawn) [Compound 154] yielded an inhibition at 0.3 µM of 95%. Molecule O=C(Nc1ccc2c(c1)OCCN2)c1ccc(C#CC(F)(F)F)cc1 [Compound 70] has an inhibition at 0.3 µM of 185%. Molecule CC(C)(C)C#Cc1ccc(C(=O)Nc2ccc3c(c2)OCCO3)c(F)c1 [Compound 155] has an inhibition at 0.3 µM of 95%. CCn1c2ccccc2c2cc(NC(=O)c3ccc(/C(C)=C\C(C)(C)C)cc3)ccc21 [Compound 19] showed an inhibition at 0.3 µM of 14%. CC(C)(C)C#Cc1ccc(C(=O)Nc2ccc3c(c2)OCO3)cn1 [Compound 26] was tested, and the inhibition at 0.3 µM was 104%. O=C(Nc1ccc2sc(CO)nc2c1)c1ccc(C#CC(F)(F)F)cc1 [Compound 54] showed an inhibition at 0.3 µM of 76%. In the case of Cc1cc(C#CC(C)(C)C)ccc1C(=O)Nc1cnc2[nH]c(CO)nc2c1 [Compound 218], the inhibition at 0.3 µM was 6%. Molecule CC(=CC(F)(F)F)c1ccc(C(=O)Nc2cccc3cnccc23)cc1 [Compound 76] has an inhibition at 0.3 µM of 88%. For Cn1ccc2ccc(NC(=O)c3ccc(C#CC(C)(C)C)nc3)cc21 [Compound 44], the inhibition at 0.3 µM was 87%. Work on CC(C)(C)C#Cc1ccc(C(=O)Nc2ccc3c(c2)OC[C@H](CO)N3)c(Cl)c1 [Compound 182] yielded an inhibition at 0.3 µM of 103%. Work on Cc1cc(/C=C/C(F)(F)F)ccc1C(=O)Nc1ccc2ncccc2c1 [Compound 222] yielded an inhibition at 0.3 µM of 82%. O=C(Nc1ccc2c(c1)OCCO2)c1ccc(C#CC2CCCC2)cc1 [Compound 100] was tested, and the inhibition at 0.3 µM was 42%. Cc1cc(C#CC(C)(C)C)ccc1C(=O)Nc1cccc2c(Cl)cccc12 [Compound 199] was tested, and the inhibition at 0.3 µM was 67%. O=C(Nc1ccc2c(c1)OCCN2)c1c(F)cc(C#CC2CC2)cc1F [Compound 130] was tested, and the inhibition at 0.3 µM was 104%. For CC(C)(C)C#Cc1cc(Cl)c(C(=O)Nc2ccc3c(c2)OCC(CO)O3)cc1F (stereo not drawn) [Compound 191], the inhibition at 0.3 µM was 83%. Molecule CC(C)(C)/C=C/c1ccc(C(=O)Nc2cccc3cnccc23)cc1 [Compound 40] has an inhibition at 0.3 µM of 86%. With CC(C)/C=C/c1ccc(C(=O)Nc2ccc3c(c2)Cc2ccccc2-3)cc1 [Compound 13] the inhibition at 0.3 µM was 11%. With CC1(C)CNc2ccc(NC(=O)c3ccc(/C=C/C(F)(F)F)cc3)cc2O1 [Compound 72] the inhibition at 0.3 µM was 124%. CC1(C)Oc2cc(NC(=O)c3ccc(/C=C/C(F)(F)F)cc3)ccc2NC1=O [Compound 71] was tested, and the inhibition at 0.3 µM was 10%. For CC(C)(C)/C=C/c1ccc(C(=O)Nc2cnc3ccccc3c2)cc1 [Compound 41], the inhibition at 0.3 µM was 101%. Cc1nc2cc(NC(=O)c3ccc(/C=C/C(F)(F)F)cc3F)ccc2s1 [Compound 177] gave an inhibition at 0.3 µM of 85%. Molecule C/C(=C\c1ccc(C(=O)Nc2ccc3c(c2)OCCO3)cc1)C(F)(F)F [Compound 102] has an inhibition at 0.3 µM of 91%. Molecule O=C(Nc1ccc2c(c1)OC[C@H](CO)N2)c1ccc(C#CC2CC2)cc1F [Compound 171] has an inhibition at 0.3 µM of 112%. C/C(=C\C(F)(F)F)c1ccc(C(=O)Nc2ccc3c(c2)OCCO3)cc1 [Compound 99] was tested, and the inhibition at 0.3 µM was 94%. Molecule Cc1cc(C#CC2CCCC2)ccc1C(=O)Nc1ccc2c(c1)OCC(CO)O2 (stereo not drawn) [Compound 141] has an inhibition at 0.3 µM of 87%. Work on CC(C)(C)C#Cc1ccc(C(=O)Nc2ccc3c(c2)OCC(CO)O3)cc1 (stereo not drawn) [Compound 81] yielded an inhibition at 0.3 µM of 98%. In the case of O=C(Nc1ccc2c(c1)OC[C@@H](CO)N2)c1ccc(C#CC2CC2)cc1F [Compound 169], the inhibition at 0.3 µM was 112%. In the case of O=C(Nc1cccc2cnccc12)c1ccc(C#CC2CCCC2)cc1 [Compound 101], the inhibition at 0.3 µM was 94%. Work on CC(C)(C)C#Cc1ccc(C(=O)Nc2cccc3cnccc23)cn1 [Compound 23] yielded an inhibition at 0.3 µM of 98%. Cc1nc2cc(NC(=O)c3c(F)cc(C#CC(C)(C)C)cc3F)ccc2s1 [Compound 180] showed an inhibition at 0.3 µM of 99%. Molecule O=C(Nc1ccc2c(c1)OCC(CO)O2)c1ccc(C#CC2CC2)cc1Cl (stereo not drawn) [Compound 156] has an inhibition at 0.3 µM of 102%. Cc1cc(C#CC2CCCC2)ccc1C(=O)Nc1ccc2c(c1)OCCO2 [Compound 140] gave an inhibition at 0.3 µM of 33%. O=C(Nc1ccc2nccnc2c1)c1ccc(/C=C/C(F)(F)F)cc1 [Compound 115] showed an inhibition at 0.3 µM of 90%. With O=C(Nc1ccc2sc(CO)nc2c1)c1ccc(/C=C/C(F)(F)F)cc1 [Compound 55] the inhibition at 0.3 µM was 101%. CC(C)/C=C/c1ccc(C(=O)Nc2ccc3ncccc3c2)cc1 [Compound 11] gave an inhibition at 0.3 µM of 34%. CC(C)(C)C#Cc1ccc(C(=O)Nc2ccc3c(c2)OCCO3)cc1 [Compound 30] gave an inhibition at 0.3 µM of 105%. Molecule Cc1cc(/C=C/C(F)(F)F)ccc1C(=O)Nc1cnc2c(c1)CNCC2 [Compound 229] has an inhibition at 0.3 µM of 54%. Cn1ccc2cc(NC(=O)c3ccc(C#CC(C)(C)C)nc3)ccc21 [Compound 25] was tested, and the inhibition at 0.3 µM was 105%. Work on CN1CCCc2ccc(NC(=O)c3ccc(C#CC4CCCC4)cc3)cc21 [Compound 98] yielded an inhibition at 0.3 µM of 78%. For O=C(Nc1ccc2c(c1)OCC(CO)O2)c1ccc(/C=C/C(F)(F)F)cc1F (stereo not drawn) [Compound 149], the inhibition at 0.3 µM was 71%. Work on Cc1cc(C#CC2CCCC2)ccc1C(=O)Nc1ccc2c(c1)OCCN2 [Compound 139] yielded an inhibition at 0.3 µM of 95%. For O=C(Nc1ccc2c(c1)NCCO2)c1ccc(C#CC2CCCC2)cc1 [Compound 106], the inhibition at 0.3 µM was 5%. With O=C(Nc1ccc2c(c1)OCC(CO)O2)c1ccc(C#CC2CC2)cc1 (stereo not drawn) [Compound 87] the inhibition at 0.3 µM was 98%.

Same assay, conditions: HEK293; 1 μM compound; low pH agonist; HEK 293 cells expressing hVR1; read-out: Low pH % Inhib. (at 1 μM)
In the case of COc1cc(NC(=O)c2ccc(/C=C/C(C)C)cc2)cc(C(F)(F)F)c1 [Compound 240], the inhibition at 1 µM was 75%.

Source: patent publication US20080300243A1, “Amide Derivatives as Ion-Channel Ligands and Pharmaceutical Compositions and Methods of Using the Same” (priority 2005, published 2008)
